Laboratory results reported in patent US10959998B2, “Pharmaceutical use and pharmaceutical composition of pyrroloquinoline quinine, its derivatives and/or its salts” (priority 2015, dated 2021).

What was measured:
EM lesions = conditions: cited from earlier work; for lesion of EM model mice: Ricci et al. 2013, by antioxidation effect
ectopic endometrial foci = assay: Endometriosis rat model, weight of transplanted foci; format: in vivo, SD rats; conditions: for weight of ectopic endometrial foci compared with the control group / weight of cysts after treatment (mg) Mean ± SD: Example 5, rats; for weight of cysts after treatment (mg) Mean ± SD: water feeding 4 week, PQQ 1 mg/kg, NAC 10 mg/kg, Resveratro 10 mg/kg, n=9
cysts of EM patients = conditions: after three months of treatment with NAC; cited from earlier work
[1] = tested on: infiltration of endometrial stroma and glands into myometrium; assay: Adenomyosis mouse model created with tamoxifen, pathological section; format: in vivo, mice
Procedure: Disodium salt of PQQ was used in the present experiment (PQQ-Na2, donated by MITSUBISHI gas chemical (MGC), Japan). The salt was dissolved with water and the concentration of its mother liquid is 1 mg/mL.
In the present Example, the mouse model of adenomyosis was created with tamoxifen. This method is easy to operate, the rate of molding can reach 100%, and the difference between the model mouses caused by the operation is small. At 2˜5 days after birth (the birth day was the first day), the mice were fed with 5 ul/(g·BW) peanut oil/lecithin/condensed milk mixture (volume ratio 2:0.2:3) supplemented with 0.2 mg/ml tamoxifen (produced by shanghai Fudan Fuhua Pharmaceutical Co, Ltd.) by drip feeding. In the negative control group, the mice were fed with peanut oil/lecithin/condensed milk mixture (volume ratio 2:0.2:3), with no tamoxifen added. All the mice were exposed to light for 12 h/day, and were reared by maternal lactation during 1-21 days of age. After 22 days of birth, the mice were separated with mother mice, and the female mice were reserved for the next experiment.
After 3 months, 7 model mice were killed after anesthesia. […] The remaining model mice were divided into 5 groups with 20 mice in each group. One of the groups was chosen as model control group (fed with normal water). The drinking water for other group were supplemented with PQQ (1 mg/kg/day), NAC (10 mg/kg/day), PQQ (1 mg/kg/day) +NAC (10 mg/kg/day) (denoted by P+N (H)); PQQ (0.2 mg/kg/day) +NAC (5 mg/kg/day) (denoted by P+N (L)).
After treatment with drugs for 4 weeks, the mice were killed by anesthesia. The uterus was surgically removed and the invasion of endometria into myometrium was analyzed by the pathological section.

[2] = tested on: ectopic endometrial stromal cells; conditions: NAC 10 mM, report of Ngo et al. 2009; cited from earlier work
[3] = tested on: ectopic endometrial stromal cells; assay: MTT cell proliferation of ectopic endometrial stromal cells; format: cell-based, human
Procedure: Endometrial tissues were surgically isolated from patients with chocolate cyst of ovary, washed 2 to 3 times with PBS supplemented with antibiotics in ultra-clean cabinet, and cut into tiny pieces (about 1 mm^3 in size) with aseptic scissors. The tissues were digested with 1 mg/ml collagenase type I for 30 to 90 min at 37° C., and continually digested with Dnase I (final concentration of 15 U/ml, 2% Dnase I) for another 30 min. The digested tissues were filtered thorough 60-mesh stainless steel filter cell strainer to remove the undigested cell tissues, and were further filtered with 200- or 400-mesh strainer. The filtered solution was centrifuged at 1000 rpm for 5 min. After removing the supernatants, the cells were washed once with culture medium compounded by DMEM/F12 (1:1 v/v) and 10% fetal bovine serum, re-suspended in the culture medium, and seeded in 6-well tissue culture plate or T25 tissue culture flasks with an appropriate density. After 24 hours incubation, the culture medium was changed to remove the non-adherent blood cells, endothelial cells, macrophages and other miscellaneous cells. After primary human endometrial stromal cells were grown to reach 90% confluence, the cells were digested with 0.25% trypsin for 4 to 6 min, and then subcultured with a split ratio of 1:2 to 1:3. Vimentin which expresses specifically in stromal cells was detected by immuno-fluorescence to measure the cell purity. The cells of purity >95% were used in the following experiments. Primary ectopic endometrial stromal cells of human were subcultured and the subcultured cells of the 3th to 6th passages were chosen as experimental subjects. The cells in logarithmic growth phase were […] and incubated in the cell culture plate at a density of 50%˜60% (i.e. 2×10^4 cells/well). After growing adherent on the wall for 24 hours, the cultured cells were divided into groups and each group was given different doses of PQQ. 20 μL MTT (5 mg/ml in PBS, pH=7.4) was added to each well at indicated time points. The cells were incubated in an incubator at 37° C. in a 5% CO2 atmosphere for 4 h. At the end of incubation, the culture supernatant in each cell was carefully aspirated away. 150 μL DMSO was added to each well. Then the wells were shaken with Orbital shaker for 10 min. The absorbance of each cell was detected at wavelength 490 nm. Finally, the cell proliferation curve was drawn. Primary ectopic endometrial stromal cells were cultured and the subcultured cells of the 3th to 6th passage were chosen as experimental subjects. The cells in logarithmic growth phase were […] and incubated in the cell culture plate at a of 50%˜60% (e.g. 2×10^4 cells/well). The cells grew adhering to the wall for 24 hours before being treated with drugs. The cells were divided into groups and each group was given different dose of PQQ. At indicated time point, 20 μL […] (5 mg/ml in PBS, pH=7.4) was added to every well. The cells were then incubated in an incubator at 37° C. in a 5% CO2 atmosphere for 4 h. After terminating incubation, the culture supernatant in each cell was carefully aspirated away, but formazan crystals should not be aspirated away in any case. 150 μL DMSO was added to each well respectively. All the wells were shaken with Orbital shaker for 10 min to make the crystals adequately solubilized. The absorbance of each cell was detected at wavelength 490 nm. Finally, the cell proliferation curve was drawn.

[4] = 4 weeks in drinking water, PQQ (disodium salt) 1 mg/kg/day, NAC 10 mg/kg/day, P+N (H) 1+10, P+N (L) 0.2+5 mg/kg/day

Compound | lesion of EM model mice (EM lesions) | weight of ectopic endometrial foci compared with the control group (ectopic endometrial foci; after 4 weeks treatment) | weight of cysts after treatment (mg) Mean ± SD (ectopic endometrial foci) [mg] | growth of EM lesions (EM lesions; mouse models of endometriosis, NAC daily dose 1.3 g/kg/day) | cysts sizes within EM patients (cysts of EM patients) | infiltration of endometrial glands, positive animals/total animals [1, 4] | infiltration of endometrial stroma, positive animals/total animals [1, 4] | number of animals with infiltration of endometrial stroma and glands compared with model control group ([1]; after 4 weeks treatment, PQQ as disodium salt) | proliferation of ectopic endometrial stromal cells [2] | weight of ectopic cys after treatment (mg) Mean ± SD (ectopic endometrial foci; Example 7, rats, 4 weeks in drinking water, PQQ (disodium salt) 1 mg/kg/day, NAC 10 mg/kg/day, P+N (H) 1+10, P+N (L) 0.2+5 mg/kg/day, n=12) [mg] | weight of ectopic cyst compared with model control group (ectopic endometrial foci; Example 7, rats, after 4 weeks treatment, PQQ as disodium salt) | cell proliferation ([3]; NAC 10 um alone) | cell proliferation ([3]; NAC 100 um alone)
Oc1ccc(C=Cc2cc(O)cc(O)c2)cc1 [Res, Resveratrol] | effectively inhibit the lesion of EM model mice | no evident difference from that of the control group | 122.1 ± 30.7 |  |  |  |  |  |  |  |  |  | 
Epigallocatechin-3-gallate [EGCG] | effectively inhibit the lesion of EM model mice |  |  |  |  |  |  |  |  |  |  |  | 
CC(=O)N[C@@H](CS)C(=O)O [NAC, N-acetyl-L-cysteine] |  | no evident difference from that of the control group | 138.1 ± 33.1 | significantly inhibit the growth of EM lesions | cysts sizes within EM patients were reduced significantly | 18/20 | 19/20 | no obvious difference with the control group | inhibit the proliferation of ectopic endometrial stromal cells | 142.1 ± 13.4 | no obvious difference with the control group | no evident effect | effectively inhibit the cell proliferation
